Assay [1] addresses T1, human DGKα (Homo sapiens (Human), UniProt P23743). Put plainly: DGKα LIPGLO assay (extruded liposome substrate). In kind it is biochemical. The gist of the method:
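Human full-length DGKα, His-tagged and produced in Sf9 cells, assayed at 20 nM (4× stock) on extruded liposomes of PS, 0.25 mM DAG and 2.75 mM PC, preincubated 10 min. Reaction started with 300 μM ATP (stock) and ran 1 h in MOPS pH 7.5/MgCl2/CaCl2/DTT buffer.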

Assay [2] concerns the target T2, human DGKζ (Homo sapiens (Human), UniProt Q13574). Put plainly: DGKζ LIPGLO assay (extruded liposome substrate). In kind it is biochemical. The conditions noted are these: extruded liposome substrate; read-out: DGKζ LIPGLO IC50. An outline of the steps:
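Sf9-derived DGKζ was premixed 10 min with PC/DAG/PS liposomes (100 nm extruded) in MOPS pH 7.5 buffer containing NaCl, MgCl2, CaCl2 and DTT.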

Assay [3] relates to naïve human CD8 T cells. Put plainly: cells. The conditions noted are these: Homo sapiens, T-cell, read-out: HuCD8 INFG Normalized EC50, anti-CD3 plus anti-CD28 as baseline; 3 μM Example 40 co-stimulation as 100% activation. As to the method: Frozen naïve human CD8 T cells were thawed in ATM-V media, incubated for 2 h in 37° C., and counted. The 384-well tissue culture plate was coated overnight at 4° C. with 20 μl anti-human CD3 at 0.05 μg/mL in PBS, which was removed off the plate before 40,000 cells per 40 microliters CD8 T cells with 0.1 μg/mL soluble anti-human CD28 were added to each well. The compounds were transferred using an Echo liquid handler to the cell plate immediately after the cells were plated. After 20 h incubation at 37° C. incubator, 3 microliters per well supernatants transferred into a new 384-well white assay plate for cytokine measurement.
Interferon-γ (IFN-γ) was quantitated using the AlphaLISA kit (Cat #AL217) as described by the manufacturer manual (Perkin Elmer). The counts from each well were converted to IFN-γ concentration […].

For assay [4], the target named is T1, human DGKα. Kind of assay: biochemical. The conditions noted are these: detergent/lipid micelle substrate; read-out: DGKα IC50. The gist of the method: (§1)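 Full-length human DGKζ (and DGKα), C-terminal His-tagged, Sf9-expressed, with phosphatidylserine/DAG micelles in 50 mM octyl glucoside; buffer 50 mM MOPS pH 7.5, 100 mM NaCl, 10 mM MgCl2, 1 μM CaCl2, 1 mM DTT.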

Assay [5] has as its target T2, human DGKζ. Kind of assay: DGKζ assay (detergent/lipid micelle substrate). The note with it: detergent/lipid micelle substrate; read-out: DGKζ IC50. In kind it is biochemical. An outline of the steps:
as §1

Assay [6] relates to pre-activated CD4 T cells and Raji cells. Put plainly: Raji CD4 T Cell IL2 Assay. In kind it is cell-based.
The test system of assay [7] is Jurkat AP1-luciferase Reporter. Kind of assay: DGK AP1-Reporter Assay. In kind it is cell-based. As to the method: The Jurkat AP1-luciferase Reporter was generated using the Cignal Lenti AP1 Reporter (luc) Kit from SABiosciences (CLS-011L).
The sample size was 30 nl per well; and one destination plate per source plate. The cell suspensions were prepared by transferring 40 mL cells (2×20 mL) to clean 50 mL conical tubes. The cells were concentrated by centrifugation (1200 rpm; 5 mins; ambient temperature). […] The cell plates were incubated for 20 minutes at 37° C., and 5% CO2.
During the incubation, anti-CD3 antibody (αCD3) solutions were prepared by mixing 3 μl αCD3 (1.3 mg/mL) with 10 mL medium [final conc=0.4 μg/mL]. Next, 1.5 μl αCD3 (1.3 mg/mL) was mixed with 0.5 mL medium [final conc=4 μg/mL]. After 20 minutes, 10 μl medium was added to all wells in column 1, wells A to M, and 10 μl αCD3 (4 μg/mL) per well was added in column 1, rows N to P for reference. Then using a multi-channel pipette, 10 μl αCD3 (0.4 μg/mL) per well was added. The αCD3 stimulated +/− compound-treated cells were incubated at 37° C., 5% CO2 for 6 hours.
During this incubation period. Steady-Glo (Promega E2520) reagent was slowly thawed on to ambient temperature. Next, 20 μl Steady-Glo reagent per well was added using a multi-drop Combi-dispenser. Bubbles were removed by centrifugation (2000 rpm, ambient temperature, 10 sees). The cells were incubated at room temperature for 5 minutes. Samples were characterized by measuring the Relative Light Units (RLU) with an using Envision Plate Reader Instrument on a luminescence protocol.

[8] abbreviates: Homo sapiens, Jurkat, read-out: API-Luciferase Reporter IC50, Table 3.

Values joined by “and” are separate entries in the source; they are usually repeats but may differ in a detail not shown here. Equal entries are not always repeated. Where two headings read alike, the source gives them in different places. Where only a bound is given, the exact number is not on record here.

Consider nine molecules from patent US11866430B2, “Naphthyridinone compounds useful as T cell activators” (priority 2018, dated 2024).

T2 sequence (Q13574 other isoform, or with tags, fused parts or gaps): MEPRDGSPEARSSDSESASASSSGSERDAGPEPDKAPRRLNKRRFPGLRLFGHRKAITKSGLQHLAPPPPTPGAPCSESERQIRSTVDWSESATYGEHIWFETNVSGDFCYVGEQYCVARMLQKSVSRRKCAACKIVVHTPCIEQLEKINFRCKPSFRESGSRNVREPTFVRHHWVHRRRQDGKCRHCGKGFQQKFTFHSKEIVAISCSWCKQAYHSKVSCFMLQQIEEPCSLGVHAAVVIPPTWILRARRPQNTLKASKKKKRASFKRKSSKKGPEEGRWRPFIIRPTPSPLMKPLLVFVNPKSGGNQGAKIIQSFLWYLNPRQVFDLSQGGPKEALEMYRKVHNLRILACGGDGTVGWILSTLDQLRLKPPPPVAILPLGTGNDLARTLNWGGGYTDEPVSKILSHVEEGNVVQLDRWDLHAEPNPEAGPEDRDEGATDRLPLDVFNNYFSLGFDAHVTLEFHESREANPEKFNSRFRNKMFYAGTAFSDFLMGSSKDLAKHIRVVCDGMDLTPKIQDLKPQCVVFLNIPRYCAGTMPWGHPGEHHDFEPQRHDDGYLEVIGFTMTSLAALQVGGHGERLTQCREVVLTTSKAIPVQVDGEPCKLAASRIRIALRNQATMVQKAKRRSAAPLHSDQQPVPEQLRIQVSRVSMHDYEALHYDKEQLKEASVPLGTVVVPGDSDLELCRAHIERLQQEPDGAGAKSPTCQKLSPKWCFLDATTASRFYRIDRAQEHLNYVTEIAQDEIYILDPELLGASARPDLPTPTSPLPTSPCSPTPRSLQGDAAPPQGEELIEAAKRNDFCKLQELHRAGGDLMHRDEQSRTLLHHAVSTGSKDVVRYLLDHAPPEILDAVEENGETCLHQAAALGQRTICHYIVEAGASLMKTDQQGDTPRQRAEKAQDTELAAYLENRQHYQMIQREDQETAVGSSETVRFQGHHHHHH
T1 sequence (P23743 other isoform, or with tags, fused parts or gaps): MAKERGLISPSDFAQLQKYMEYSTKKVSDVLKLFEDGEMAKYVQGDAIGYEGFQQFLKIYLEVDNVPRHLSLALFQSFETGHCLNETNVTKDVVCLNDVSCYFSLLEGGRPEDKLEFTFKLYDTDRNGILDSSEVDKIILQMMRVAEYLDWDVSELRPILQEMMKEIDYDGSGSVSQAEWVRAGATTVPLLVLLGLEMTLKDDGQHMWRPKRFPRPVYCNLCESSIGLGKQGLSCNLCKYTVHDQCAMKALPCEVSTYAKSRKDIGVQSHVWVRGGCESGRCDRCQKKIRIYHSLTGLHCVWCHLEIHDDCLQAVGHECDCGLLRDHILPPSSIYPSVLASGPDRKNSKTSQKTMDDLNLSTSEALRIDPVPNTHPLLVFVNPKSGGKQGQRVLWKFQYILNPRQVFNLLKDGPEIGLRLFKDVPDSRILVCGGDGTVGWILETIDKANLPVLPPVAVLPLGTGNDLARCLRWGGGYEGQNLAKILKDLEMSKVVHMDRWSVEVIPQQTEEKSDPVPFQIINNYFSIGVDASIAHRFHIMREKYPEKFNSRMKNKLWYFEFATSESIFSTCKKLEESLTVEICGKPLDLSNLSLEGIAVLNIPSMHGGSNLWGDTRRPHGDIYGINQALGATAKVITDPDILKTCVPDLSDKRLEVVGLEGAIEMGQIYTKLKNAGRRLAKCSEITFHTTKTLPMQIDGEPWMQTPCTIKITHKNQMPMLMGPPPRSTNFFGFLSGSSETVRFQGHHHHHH

For `Cn1c(=O)c(C#N)c(N2CCN(C(c3ccccc3)c3ccc(Cl)cc3)CC2)c2nc(Br)ccc21` (racemic) [Example 429, 6-bromo-4-{4-[(4-chlorophenyl)(phenyl)methyl]piperazin-1-yl}-1-methyl-2-oxo-1,2-dihydro-1,5-naphthyridine-3-carbonitrile], the IC50 worked out at 1.8 µM in assay [1] and 9.4 µM in assay [2]. In addition, the concentration giving a half-maximal response (EC50) in assay [3] was found to be 0.08 µM.
For `COc1ccc2c(n1)c(N1CCN(C(c3ccc(F)cc3OC)c3ccc(F)cc3OC)CC1)c(C#N)c(=O)n2C` [Example 402, 4-{4-[bis(4-fluoro-2-methoxyphenyl)methyl]piperazin-1-yl}-6-methoxy-1-methyl-2-oxo-1,2-dihydro-1,5-naphthyridine-3-carbonitrile], in that order: 160 µM, 3.5 µM and 1.78 µM.
`COc1cc(C)ccc1C(c1ccc(F)cc1)N1CCN(c2c([N+](=O)[O-])c(=O)n(C)c3ccc(C#N)nc23)CC1` (centres unmarked) [Example 416, 8-{4-[(4-fluorophenyl)(2-methoxy-4-methylphenyl)methyl]piperazin-1-yl}-5-methyl-7-nitro-6-oxo-5,6-dihydro-1,5-naphthyridine-2-carbonitrile]: the IC50 is 4.8 µM in assay [1] and 0.91 µM in assay [2]. The 50% effective concentration (EC50) in assay [3] came to 0.03 µM.
The like results for `COc1cc(F)ccc1C(c1ccc(F)cc1OC)N1CCN(c2c(C#N)c(=O)n(C)c3ccc(C)nc23)CC1` [Example 251, 4-{4-[bis(4-fluoro-2-methoxyphenyl)methyl]piperazin-1-yl}-1,6-dimethyl-2-oxo-1,2-dihydro-1,5-naphthyridine-3-carbonitrile] were, in that order, more than 240 µM, 9 µM and 0.58 µM.
In the case of `COc1ccc2c(n1)c(N1CCN(C(c3ccc(F)cc3)c3ccc(F)cc3OC)CC1)c(C#N)c(=O)n2C` (single isomer, unassigned) [Example 413, 4-{4-[(4-fluoro-2-methoxyphenyl)(4-fluorophenyl)methyl]piperazin-1-yl}-6-methoxy-1-methyl-2-oxo-1,2-dihydro-1,5-naphthyridine-3-carbonitrile], the half-inhibitory concentration (IC50) in assay [1] is 3.3 µM; in assay [2] it was 0.97 µM. Moreover, the EC50 in assay [3] amounted to 0.04 µM.
With `CCC(c1ccc(F)cc1)N1CCN(c2c(C#N)c(=O)n(C)c3ccc(C)nc23)CC1` (racemic) [Example 398, 4-{4-[1-(4-fluorophenyl)propyl]piperazin-1-yl}-1,6-dimethyl-2-oxo-1,2-dihydro-1,5-naphthyridine-3-carbonitrile], the IC50 in assay [2] was > 240 µM and 49 µM. Also, the half-maximal effective concentration (EC50) in assay [3] stood at 1.21 µM.
For `COc1ccccc1C(c1ccc(F)cc1)N1CCN(c2c([N+](=O)[O-])c(=O)n(C)c3ccc(C#N)nc23)CC1` (single isomer, unassigned) [Example 20, 8-{4-[(4-fluorophenyl)(2-methoxyphenyl)methyl]piperazin-1-yl}-5-methyl-7-nitro-6-oxo-5,6-dihydro-1,5-naphthyridine-2-carbonitrile], the IC50 was 3.3 µM in assay [4]; 4.3 µM in assay [5]; more than 100 µM in assay [6]; 0.4 µM in assay [7] (read-out: API-Luciferase Reporter IC50, Table 3).
On to `Cn1c(=O)c([N+](=O)[O-])c(N2CCN(C(c3ccccc3)c3ccccc3O)CC2)c2nc(Br)ccc21` (single isomer, unassigned) [Example 78, 6-bromo-4-(4-((2-hydroxyphenyl)(phenyl)methyl)piperazin-1-yl)-1-methyl-3-nitro-1,5-naphthyridin-2(1H)-one], for which the half-inhibitory concentration (IC50) in assay [4] is 12 µM; in assay [5] it was more than 240 µM; in assay [6] it was more than 100 µM; in assay [7] (setting [8]) it was 0.14 µM.
Take `C#CCn1c(=O)c(C#N)c(N2CCN(Cc3c(C)cc(C)cc3O)CC2)c2nc(Br)ccc21` [Example 69, 6-bromo-4-(4-(2-hydroxy-4,6-dimethylbenzyl)piperazin-1-yl)-2-oxo-1-(prop-2-yn-1-yl)-1,2-dihydro-1,5-naphthyridine-3-carbonitrile]: the concentration for half-maximal inhibition (IC50) was 1.3 µM in assay [4]; 13 µM in assay [5]; more than 100 µM in assay [6] (Homo sapiens, Raji); 0.51 µM in assay [7] (setting [8]).

A word on the IC50: it is the concentration that inhibits the measured activity by half. As usually defined, the EC50 is the concentration needed to bring the measured effect to its halfway point.
